In patent US20120003270A1, “6-SUBSTITUTED ISOFLAVONOID COMPOUNDS AND USES THEREOF” (priority 2008, published 2012):

What was measured:
[1] = system: VCAM-1; experiment: TNFα-induced VCAM-1 expression in HAECs (ELISA); type: cell-based, human; settings: TNFα-stimulated HAECs, 405 nm
Procedure: Inhibition of TNFα-stimulated endothelial cell activation was assessed by measuring surface expression of cell adhesion molecules with an ELISA method. Human arterial endothelial cells (HAEC) in growth medium (Cell Applications Inc.) were seeded into 96-well plates at a density of 10,000 cells per well. Plates were incubated overnight at 37° C. in a humidified incubator to allow for cells to become confluent. On the morning of the experiment, TNFα (10 μl, 2 ng/ml) was added to each well, which contained 100 μl of medium. Test compounds were diluted in DMSO-containing medium (2.5% DMSO) to give a concentration of 100 and 300 μM. They were added to wells so that final concentrations were 10 and 30 μM. DMSO-containing medium alone was added to zero concentration control wells. All samples were measured in quadruplicate (4 wells per treatment).
After incubation with a compound of the formula (I), the medium was removed and cells were probed with either non-specific IgG or specific mouse antibodies (VCAM (BD Biosciences −0.1 μg in 100 μL buffered saline with 10% heat-inactivated human serum)).
Adhesion molecule expression was detected by addition of sheep anti-mouse antibody/horseradish peroxidase conjugate. Plates were allowed to stand for 30 minutes—monolayers were then washed, and sheep anti-mouse antibody/horseradish peroxidase conjugate (1:500 in 100 μL HBSS with 10% heat-inactivated human serum and 0.05% Tween 20) was added and left for 30 minutes. After further washing, 150 μL, ABTS substrate (Kirkegaard and Perry Laboratories) was added to each well and allowed to develop for 15 minutes. Optical density was measured at 405 nm with an ELISA reader (Titertek Multiscan, Flow Laboratories).

[2] = system: iNOS; experiment: NO synthesis in LPS-stimulated RAW 264.7 (Griess); type: cell-based, mouse; settings: LPS 50 ng/ml, 16 hrs
Procedure: The mouse macrophage cell line RAW 264.7 was cultured in DMEM supplemented with foetal calf serum (FCS), 2 mM glutamine and 50 U/ml penicillin/streptomycin. Cells were treated with either the compounds of the formula (I) (in 0.025% DMSO) or vehicle alone, and added one hour before 50 ng/ml LPS, which induces iNOS and the production of NO. After incubation for 16 hrs, culture media was collected. Nitrite concentration is a quantitative indicator of NO production and was determined by the Griess Reaction. Briefly, 100 μL of Griess reagent was added to 50 μL of each supernatant in duplicate. The absorbance at 550 nm was measured (Molecular Devices, SpectraMax 250 microplate spectrophotometer, CA, USA), and nitrite concentrations were determined against a standard curve of sodium nitrite.

[3] = system: eNOS; experiment: eNOS mRNA expression in HCAECs (real-time PCR); type: cell-based, human; settings: 10 μM, 24 hr; for Average increase in the expression of eNOS: average of experiments
Procedure: HCAECs were grown as described above. Because cell viability was less than 100% at 30 and 100 μM, eNOS experiments were conducted at one concentration (10 μM). After incubation, total RNA was extracted using TRI reagent (Sigma, St Louis, Mo., USA), following the manufacturer's protocol. RNA was quantitated and normalized to 100 ng/μl using the SYBR Green II assay (Molecular Probes, Eugene, Oreg., USA) before being reverse transcribed using iScript (Bio-Rad, Hercules, Calif., USA). eNOS (sense 5′-CCATCTACAGCTTTCCGGCGC-3′ and antisense 5′-CTCTGGGGTGGCCTTCAGCA-3′) and 18S (sense 5′-CGGCTACCACATCCAAGGAA-3′ and antisense 5′-GCT GGA ATT ACC GCG GCT-3′) mRNA levels were determined by real-time PCR using iQ SYBR Green Supermix (Bio-Rad) in an iCycler iQ RealTime thermocyler detection system (Bio-Rad Laboratories). The cycling parameters were 95° C. for 30 seconds, 62° C. for 30 seconds, and 72° C. for 30 seconds for 40 cycles, and real-time data was collected at each cycle. There were six replicates.

[4] = Pharmacokinetics after a single oral dose in mice; type: in vivo, mouse; settings: serum; for half-life / AUC: mouse; for half-life: oral, 25 mg/kg, unconjugated, one phase exponential decay, read-out: t1/2 (free); for AUC: oral 25 mg/kg in PEG 400/PBS 1:1; for AUCfree/AUCtotal / [max]free (μM, mean ± SD): oral 25 mg/kg
Procedure: The pharmacokinetic (PK) profiles of compounds (1) and (3) were examined following oral administration in PEG 400/PBS 1:1 at a dose of 25 mg/kg. For each experiment, three animals were allocated per time point (15 min, 30 min, 60 min, 90 min, 4 hr and 24 hr). Mice were killed using cervical dislocation and serum collected via cardiac puncture. Faeces and urine, where available, were also collected. Samples were stored at −80° C. and analysed by LC-MS in-house. The limit of detection was 20 ng/ml.
In Table 23 (and Table 24), “AUC” represents the area under the serum concentration versus time curve, expressed as μM*hour/L. This number assesses absorption and clearance in a relative way. The higher the number, the more compound has been absorbed and the longer it has remained in circulation. “AUCfree” refers to the area under the curve for unconjugated or free analogue, whereas “AUCtotal” refers to the area under the curve for the free and conjugated analogue combined.
“[max]” refers to the maximum concentration observed in serum. These measurements also give some understanding of how well a compound is absorbed.
The ratio of the AUCfree to the AUCtotal gives a relative measure of how much of the administered compound i.e. ‘free’ remains either in circulation compared to how much of the compound is conjugated.
“t1/2” is the half life, i.e. the time taken for the serum concentration to fall by half. The elimination of a drug is usually an exponential (logarithmic) process, so that a constant proportion is eliminated per unit time. […] The first refers to the t1/2 of the unconjugated analogue and the second the t1/2 of the total (free plus conjugated) analogue.

[5] = system: rabbit kidney (RK-13); experiment: Toxicity in normal cells (MTT), RK-13; type: cell-based; settings: Oryctolagus cuniculus, RK-13, 120 h, 5 days, top concentration 150 μM, read-out: Normal cell viability IC50
Procedure: Human neonatal fibroblast foreskin (NFF—a gift from Dr. Peter Parsons, Queensland Institute of Medical Research) or rabbit kidney (RK-13—a gift from Prof. Miller Whalley, Macquarie University) cells were seeded into 96 well plates and cultured in RPMI supplemented with 10% FCS (CSL, Australia), penicillin (100 U/ml), streptomycin ([…]), L-glutamine (2 mM) and sodium bicarbonate (1.2 g/L) at 37° C. and 5% CO2 for 24 hours until cells had attached and entered log phase of growth. Test compounds were added in serial two-fold dilutions from 150 μM in triplicate and incubated for a further 5 days. MTT was then added to each well, incubated for 3 hours at 37° C., after which the medium was tipped off. Following the addition of DMSO, the absorbance for each well was read on a plate reader. The assays were repeated at least twice.

| Compound | VCAM-1 expression, Absorbance ([1]; 10 μM) | VCAM-1 expression, Absorbance ([1]; 30 μM) | NO ([2]; 1 μM) [µM] | NO ([2]; 10 μM) [µM] | Average increase in the expression of eNOS [3] [%] | Increase in expression of eNOS mRNA relative to control cells ([3]; EXPT 1) | Increase in expression of eNOS mRNA relative to control cells ([3]; EXPT 2) | half-life [4] [min] | AUC [4] [µM·h] | AUCfree/AUCtotal [4] [%] | [max]free (μM, mean ± SD) [4] [µM] | IC50 [5] [µM] | NO (μM) ([2]; 1 μM) | Increase in expression of eNOS mRNA relative to control cells ([3]; EXPT 3) |
| --- | --- | --- | --- | --- | --- | --- | --- | --- | --- | --- | --- | --- | --- | --- |
| O=C(O)C1CCCN1Cc1cc2c(cc1O)OCC(c1ccc(O)cc1)=C2 (stereo not shown) [Compound (3)] | 0.161 ± 0.16 | 0.215 ± 0.018 | 31.33 ± 0.16 | 21.79 ± 0.82 | 325 | 372 ± 138% (0.00001) | 277 ± 212 (0.002) | 28 | 0.108 | 12 | 0.03 ± 0.01 | > 150 | – | – |
| CN(C)Cc1cc2c(cc1O)OCC(c1ccc(O)cc1)=C2 [Compound (1)] | 0.164 ± 0.012 | 0.208 ± 0.008 | – | 5.29 ± 0.15 | 45 | 52 ± 25% (0.0001) | 53 ± 49 (0.009) | 9 | 0.127 | 33 | 0.13 ± 0.1 | > 150 | 17.27 ± 0^ μM | 30 ± 30 (0.014) |
